Assay results reported in patent US11180504B2 (ORCHID PHARMA LTD., priority 2016, dated 2021).
Converted amounts (≈) assume the structure as drawn. Where two headings read alike, the source gives them in different places.

Tests used:
[1] = test system: carbapenem sensitive Escherichia coli; assay: MIC by broth micro-dilution (CLSI), carbapenem sensitive E. coli; format: cell-based
[2] = test system: carbapenem sensitive Pseudomonas aeruginosa; assay: MIC by broth micro-dilution (CLSI), carbapenem sensitive P. aeruginosa; format: cell-based
[3] = test system: methicillin-sensitive Staphylococcus aureus; assay: MIC by broth micro-dilution (CLSI), methicillin-sensitive S. aureus; format: cell-based; conditions: MSSA S. aureus ATCC29213
[4] = test system: carbapenemase producing K. pneumoniae; assay: MIC by broth micro-dilution (CLSI), carbapenemase producing K. pneumoniae; format: cell-based, Klebsiella pneumoniae
[5] = Escherichia coli, ATCC25922, ESBL −ve E. coli ATCC25922, read-out: MIC
[6] = Pseudomonas aeruginosa, ATCC27853, Meropenem susceptible P. aeruginosa ATCC27853, read-out: MIC
[7] = Staphylococcus aureus, ATCC 29213 / MSSA, read-out: MIC
[8] = KPC-2 K. pneumoniae ATCC BAA-1705
[9] = Klebsiella pneumoniae, ATCCBAA1705, KPC-2 K. pneumoniae ATCC BAA-1705, read-out: MIC

| MIC [1, 5] [µg/mL] | MIC [2, 6] [µg/mL] | MIC [3, 7] [µg/mL] | MIC [4, 8] [µg/mL] | MIC [4, 9] [µg/mL] | MIC ([1]; ESBL −ve E. coli ATCC25922) [µg/mL] | MIC ([2]; Meropenem susceptible P. aeruginosa ATCC27853) [µg/mL] | MIC [3] [µg/mL] | Compound | MIC ([4]; Klebsiella pneumoniae, ATCCBAA1705) [µg/mL] |
| --- | --- | --- | --- | --- | --- | --- | --- | --- | --- |
| 0.5 (≈ 0.946 µM) | > 128 | 16 (≈ 30.3 µM) | 16 (≈ 30.3 µM) |  |  |  |  | C[C@@H](NS(=O)(=O)Cn1cnnn1)[C@H]1C(=O)N2C(C(=O)O)=C(S[C@@H]3CN[C@H](C(=O)N(C)C)C3)[C@H](C)[C@H]12 [Example 379, (4R,5S,6S)-6-((R)-1-((1H-tetrazol-1-yl)methylsulfonamido)ethyl)-3-((3S,5S)-5-(dimethylcarbamoyl)pyrrolidin-3-ylthio)-4-methyl-7-oxo-1-azabicyclo[3.2.0]hept-2-ene-2-carboxcylic acid] |  |
| 1 (≈ 1.76 µM) | 32 (≈ 56.2 µM) | 32 (≈ 56.2 µM) |  | 8 (≈ 14 µM) |  |  |  | C[C@@H](NS(=O)(=O)Cn1cnnn1)[C@H]1C(=O)N2C(C(=O)O)=C(S[C@@H]3CN[C@H](C(=O)N4CC[C@@H](N)C4)C3)[C@H](C)[C@H]12 [Example 380, (4R,5S,6S)-6-((R)-1-((1H-tetrazol-1-yl)methylsulfonamido)ethyl)-3-((3S,5S)-5-((R)-3-aminopyrrolidine-1-carbonyl)pyrrolidin-3-ylthio)-4-methyl-7-oxo-1-azabicyclo[3.2.0]hept-2-ene-2-carboxylic acid] |  |
| 1 (≈ 1.76 µM) | 128 (≈ 225 µM) | 16 (≈ 28.1 µM) |  | 4 (≈ 7.02 µM) |  |  |  | C[C@@H](NS(=O)(=O)Cn1ncnn1)[C@H]1C(=O)N2C(C(=O)O)=C(S[C@@H]3CN[C@H](C(=O)N4CC[C@@H](N)C4)C3)[C@H](C)[C@H]12 [Example 382, (4R,5S,6S)-6-((R)-1-((2H-tetrazol-2-yl)methylsulfonamido)ethyl)-3-((3S,5S)-5-((R)-3-aminopyrroldine-1-carbonyl)pyrrolidin-3-ylthio)-4-methyl-7-oxo-1-azabicyclo[3.2.0]hept-2-ene-2-carboxylic acid] |  |
| 0.25 (≈ 0.467 µM) | > 128 | 4 (≈ 7.47 µM) |  | 4 (≈ 7.47 µM) |  |  |  | C[C@@H](NC(=O)Cn1nnnc1N(C)C)[C@H]1C(=O)N2C(C(=O)O)=C(S[C@@H]3CN[C@H](C(=O)N(C)C)C3)[C@H](C)[C@H]12 [Example 383, (4R,5S,6R)-6-((R)-1-(2-(5-(dimethylamino)-1H-tetrazol-1-yl)acetamido)ethyl)-3-((3S,5S)-5-(dimethylcarbamoyl)pyrrolidin-3-ylthio)-4-methyl-7-oxo-1-azabicyclo[3.2.0]hept-2-ene-2-carboxylic acid] |  |
| 0.5 (≈ 0.867 µM) | 64 (≈ 111 µM) | 4 (≈ 6.94 µM) |  | 4 (≈ 6.94 µM) |  |  |  | C[C@@H](NC(=O)Cn1nnnc1N(C)C)[C@H]1C(=O)N2C(C(=O)O)=C(S[C@@H]3CN[C@H](C(=O)N4CC[C@@H](N)C4)C3)[C@H](C)[C@H]12 [Example 384, (4R,5S,6R)-3-((3S,5S)-5-((R)-3-aminopyrrolidine-1-carbonyl)pyrrolidin-3-ylthio)-6-((R)-1-(2-(5-(dimethylamino)-1H-tetrazol-1-yl)acetamido)ethyl)-4-methyl-7-oxo-1-azabicyclo[3.2.0]hept-2-ene-2-carboxylic acid] |  |
| 0.25 (≈ 0.478 µM) | 64 (≈ 122 µM) | 4 (≈ 7.65 µM) |  | 2 (≈ 3.83 µM) |  |  |  | COc1nnnn1CC(=O)N[C@H](C)[C@H]1C(=O)N2C(C(=O)O)=C(S[C@@H]3CN[C@H](C(=O)N(C)C)C3)[C@H](C)[C@H]12 [Example 385, (4R,5S,6R)-3-((3S,5S)-5-(dimethylcarbamoyl)pyrrolidin-3-ylthio)-6-((R)-1-(2-(5-methoxy-1H-tetrazol-1-yl)acetamido)ethyl)-4-methyl-7-oxo-1-azabicyclo[3.2.0]hept-2-ene-2-carboxylic acid] |  |
| 0.125 (≈ 0.222 µM) | 8 (≈ 14.2 µM) | 2 (≈ 3.55 µM) |  | 8 (≈ 14.2 µM) |  |  |  | COc1nnnn1CC(=O)N[C@H](C)[C@H]1C(=O)N2C(C(=O)O)=C(S[C@@H]3CN[C@H](C(=O)N4CC[C@@H](N)C4)C3)[C@H](C)[C@H]12 [Example 386, (4R,5S,6R)-3-((3S,5S)-5-((R)-3-aminopyrrolidine-1-carbooyl)pyrrolidin-3-ylthio)-6-((R)-1-(2-(5-methoxy-1H-tetrazol-1-yl)acetamido)ethyl)-4-methyl-7-oxo-1-azabicyclo[3.2.0]hept-2-ene-2-carboxylic acid] |  |
| 0.25 (≈ 0.481 µM) | 32 (≈ 61.6 µM) | 8 (≈ 15.4 µM) |  | 8 (≈ 15.4 µM) |  |  |  | C[C@@H](NC(=O)Cn1cnnn1)[C@H]1C(=O)N2C(C(=O)O)=C(SC3CN(C(=O)[C@@H]4C[C@H](N)CN4)C3)[C@H](C)[C@H]12 [Example 387] |  |
| 2 (≈ 3.94 µM) | > 128 | 8 (≈ 15.8 µM) |  | 8 (≈ 15.8 µM) |  |  |  | C[C@@H](NC(=O)C(N)C(F)(F)F)[C@H]1C(=O)N2C(C(=O)O)=C(S[C@@H]3CN[C@H](C(=O)N(C)C)C3)[C@H](C)[C@H]12 (stereo partly drawn) [Example 388] |  |
|  |  |  | 4 (≈ 7.88 µM) |  | 1 (≈ 1.97 µM) | >128 | 8 (≈ 15.8 µM) | C[C@@H](NC(=O)C(N)C(F)(F)F)[C@H]1C(=O)N2C(C(=O)O)=C(S[C@@H]3CN[C@H](C(=O)N(C)C)C3)[C@H](C)[C@H]12 (stereo partly drawn) [Example 389, (4R,5S,6R)-6-((1R)-(2-amino-3,3,3-trifluoropropanamido)ethyl)-3-((3S,5S)-5-(dimethylcarbamoyl)pyrrolidin-3-ylthio)-4-methyl-7-oxo-1-azabicyclo[3.2.0]hept-2-ene-2-carboxylic acid] |  |
| 1 (≈ 1.7 µM) | 128 (≈ 217 µM) | 4 (≈ 6.79 µM) |  | 16 (≈ 27.2 µM) |  |  |  | C[C@@H](NC(=O)CN1CCn2nnnc2C1)[C@H]1C(=O)N2C(C(=O)O)=C(S[C@@H]3CN[C@H](C(=O)N4CC[C@@H](N)C4)C3)[C@H](C)[C@H]12 [Example 390, (4R,5S,6R)-3-((3S,5S)-5-((R)-3-aminopyrrolidine-1-carbonyl)pyrrolidin-3-ylthio)-6-((R)-1-(2-(5,6-dihydrotetrazolo[1,5-a]pyrazin-7(8H)-yl)acetamido)ethyl)-4-methyl-7-oxo-1-azabicyclo[3.2.0]hept-2-ene-2-carboxylic acid] |  |
| 0.5 (≈ 0.962 µM) | 4 (≈ 7.7 µM) | 1 (≈ 1.92 µM) |  | 0.5 (≈ 0.962 µM) |  |  |  | C[C@@H](NC(=O)Cn1cnnn1)[C@H]1C(=O)N2C(C(=O)O)=C(S[C@@H]3CN[C@H](CN4CC[C@@H](N)C4)C3)[C@H](C)[C@H]12 [Example 391] |  |
| 1 (≈ 1.97 µM) | 64 (≈ 126 µM) | 4 (≈ 7.88 µM) |  | 4 (≈ 7.88 µM) |  |  |  | C[C@@H](NC(=O)Cn1nnnc1N)[C@H]1C(=O)N2C(C(=O)O)=C(S[C@@H]3CN[C@H](C(=O)N(C)C)C3)[C@H](C)[C@H]12 [Example 392, (4R,5S,6R)-6-((R)-1-(2-(5-amino-1H-tetrazol-1-yl)acetamido)ethyl)-3-((3S,5S)-5-(dimethylcarbamoyl)pyrrolidin-3-ylthio)-4-methyl-7-oxo-1-azabicyclo[3.2.0]hept-2-ene-2-carboxylic acid] |  |
| 0.125 (≈ 0.234 µM) | 8 (≈ 15 µM) | 4 (≈ 7.48 µM) |  | 1 (≈ 1.87 µM) |  |  |  | C[C@@H](NC(=O)Cn1cnnn1)[C@H]1C(=O)N2C(C(=O)O)=C(S[C@@H]3CN[C@H](C(=O)N4CC[C@@H](O)C4)C3)[C@H](C)[C@H]12 [Example 393, (4R,5S,6R)-6-((R)-1-(2-(1H-tetrazol-1-yl)acetamido)ethyl)-3-((3S,5S)-5-((R)-3-hydroxypyrrolidine-1-carbonyl)pyrrolidin-3-ylthio)-4-methyl-7-oxo-1-azabicyclo[3.2.0]hept-2-ene-2-carboxylic acid] |  |
| 2 (≈ 3.32 µM) | 128 (≈ 213 µM) | 8 (≈ 13.3 µM) |  | 32 (≈ 53.2 µM) |  |  |  | C[C@@H](NC(=O)Cc1nnc(C(F)(F)F)o1)[C@H]1C(=O)N2C(C(=O)O)=C(S[C@@H]3CN[C@H](C(=O)N4CC[C@@H](N)C4)C3)[C@H](C)[C@H]12 [Example 394, (4R,5S,6R)-3-((3S,5S)-5-((R)-3-aminopyrrolidine-1-carbonyl)pyrrolidin-3-ylthio)-4-methyl-7-oxo-6-((R)-1-(2-(5-(trifluoromethyl)-1,3,4-oxadiazol-2-yl)acetamido)ethyl)-1-azabicyclo[3.2.0]hept-2-ene-2-carboxylic acid] |  |
| 0.125 (≈ 0.212 µM) | 1 (≈ 1.69 µM) | 2 (≈ 3.39 µM) |  | 1 (≈ 1.69 µM) |  |  |  | C[C@@H](NC(=O)Cn1cnnn1)[C@H]1C(=O)N2C(C(=O)O)=C(S[C@@H]3CN[C@H](C(=O)N4CCN(C(=O)CN)CC4)C3)[C@H](C)[C@H]12 [Example 395, (4R,5S,6R)-6-((R)-1-(2-(1H-tetrazol-1-yl)acetamido)ethyl)-3-((3S,5S)-5-(4-(2-aminoacetyl)piperazine-1-carbonyl)pyrrolidin-3-ylthio)-4-methyl-7-oxo-1-azabicyclo[3.2.0]hept-2-ene-2-carboxylic acid] |  |
| 0.125 (≈ 0.227 µM) | 4 (≈ 7.26 µM) | 4 (≈ 7.26 µM) |  | 1 (≈ 1.82 µM) |  |  |  | C[C@@H](NC(=O)Cn1cnnn1)[C@H]1C(=O)N2C(C(=O)O)=C(S[C@@H]3CN[C@H](C(=O)N4C[C@@H](O)[C@H](O)C4)C3)[C@H](C)[C@H]12 [Example 396, (4R,5S,6R)-6-((R)-1-(2-(1H-tetrazol-1-yl)acetamido)ethyl)-3-((3S,5S)-5-((3R,4R)-3,4-dihydroxypyrrolidine-1-carbonyl)pyrrolidin-3-ylthio)-methyl-7-oxo-1-azabicyclo[3.2.0]hept-2-ene-2-carboxylic acid] |  |

| Compound | MIC [1, 5] [µg/mL] | MIC [2, 6] [µg/mL] | MIC [3, 7] [µg/mL] | MIC [4, 8] [µg/mL] | MIC [4, 9] [µg/mL] | MIC ([1]; ESBL −ve E. coli ATCC25922) [µg/mL] | MIC ([2]; Meropenem susceptible P. aeruginosa ATCC27853) [µg/mL] | MIC [3] [µg/mL] | MIC ([4]; Klebsiella pneumoniae, ATCCBAA1705) [µg/mL] |
| --- | --- | --- | --- | --- | --- | --- | --- | --- | --- |
| C[C@@H](NC(=O)Cn1cnnn1)[C@H]1C(=O)N2C(C(=O)O)=C(S[C@@H]3CN[C@H](C(=O)N4CCC5(CC6CCC(C5)N6)C4)C3)[C@H](C)[C@H]12 (stereo partly drawn) [Example 397, (4R,5S,6R)-6-((R)-1-(2-(1H-tetrazol-1-yl)acetamido)ethyl)-3-((3S,5S)-5-(8-azaspiro[bicyclo[3.2.1]octane-3,3′-pyrrolidine]-1′-ylcarbonyl)pyrrolidin-3-ylthio)-4-methyl-7-oxo-1-azabicyclo[3.2.0]hept-2-ene-2-carboxylic acid] | 0.25 (≈ 0.407 µM) | 2 (≈ 3.26 µM) | 2 (≈ 3.26 µM) |  |  |  |  |  | 1 (≈ 1.63 µM) |
